This is an account of results in ChEMBL document CHEMBL3612058, “Synthesis and biological evaluation of a new series of 2-amino-3-aroyl thiophene derivatives as agonist allosteric modulators of the A1 adenosine receptor. A position-dependent effect study” (Eur J Med Chem, 2015).

Assay [1] concerns the target T1, Adenosine receptor A1 (Homo sapiens) (UniProt P30542).
T1 sequence (whole entry): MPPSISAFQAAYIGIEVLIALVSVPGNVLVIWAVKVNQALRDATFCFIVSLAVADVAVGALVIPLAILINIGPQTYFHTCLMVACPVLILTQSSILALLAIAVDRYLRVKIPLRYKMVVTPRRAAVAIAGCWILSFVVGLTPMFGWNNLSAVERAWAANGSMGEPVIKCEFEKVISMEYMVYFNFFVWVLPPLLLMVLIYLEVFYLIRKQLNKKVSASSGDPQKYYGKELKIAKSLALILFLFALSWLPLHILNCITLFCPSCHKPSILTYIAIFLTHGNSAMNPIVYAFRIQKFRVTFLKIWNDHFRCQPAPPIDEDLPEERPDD
Nature of the assay: Ratio of PD81723 to compound for positive allosteric enhancement of human cloned adenosine A1 receptor expressed in CHO cells assessed as inhibition of forskolin-induced cAMP accumulation at 10 uM using [3H]-cAMP by scintillation counting. It counts as functional, cell-based. Background: cAMP levels reflect the balance of adenylyl cyclase and phosphodiesterase activity.

The target of assay [2] is T1, Adenosine receptor A1 (Homo sapiens). Nature of the assay: Positive allosteric enhancement of human cloned adenosine A1 receptor expressed in CHO cells assessed as inhibition of forskolin-induced cAMP accumulation at 100 nM using [3H]-cAMP by scintillation counting relative to control in presence of 1 pM of CCPA. It counts as functional, cell-based.
Assay [3] concerns the target T2, Adenosine receptor A3 (Homo sapiens) (UniProt P0DMS8).
T2 sequence (whole entry): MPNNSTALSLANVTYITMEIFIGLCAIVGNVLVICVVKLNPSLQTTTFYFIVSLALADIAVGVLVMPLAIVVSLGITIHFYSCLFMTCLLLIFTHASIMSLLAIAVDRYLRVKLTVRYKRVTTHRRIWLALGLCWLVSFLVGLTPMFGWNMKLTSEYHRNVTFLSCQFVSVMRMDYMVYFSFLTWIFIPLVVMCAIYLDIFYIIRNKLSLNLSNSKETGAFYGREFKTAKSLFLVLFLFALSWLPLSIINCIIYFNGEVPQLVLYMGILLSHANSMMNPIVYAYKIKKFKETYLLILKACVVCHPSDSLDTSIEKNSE
Description: Displacement of [3H]-MRE-3008-F20 from human adenosine A3 receptor expressed in CHO cells at 10 uM after 120 mins by scintillation counting. In kind it is cell-based. In general terms: Displacement assays read how much labelled ligand stays bound in the presence of the test substance.

The nature of assay [4]: Displacement of [3H]-ZM241385 from human adenosine A2 receptor expressed in CHO cells at 10 uM after 120 mins by scintillation counting. In kind it is cell-based.
Assay [5] has as its target T1, Adenosine receptor A1 (Homo sapiens). Description: Displacement of [3H]DPCPX from human adenosine A1 receptor expressed in CHO cells at 10 uM after 120 mins by scintillation counting. In kind it is cell-based.
Assay [6] has the same target. Description: Positive allosteric enhancement of human cloned adenosine A1 receptor expressed in CHO cells assessed as inhibition of forskolin-induced cAMP accumulation at 10 uM using [3H]-cAMP by scintillation counting relative to control. In kind it is functional, cell-based.
The target is the same in assay [7]. Description: Binding affinity to human adenosine A1 receptor expressed in CHO cells assessed as fold Bmax shift of [3H]-CCPA at 10 uM after 90 mins by [3H]-CCPA binding assay relative to control. In kind it is cell-based.
The target is the same in assay [8]. Nature of the assay: Binding affinity to human adenosine A1 receptor expressed in CHO cells assessed as fold Ki shift of CCPA at 10 uM after 90 mins by [3H]-CCPA displacement assay relative to control. In kind it is cell-based.

With `COc1ccc(Cc2c(-c3ccccc3)sc(N)c2C(=O)c2ccc(Cl)cc2)c(OC)c1`, the Ratio in assay [1] was 3. Besides, the inhibition (usually the relative decrease from the control value, in per cent) in assay [2] was 53%; in assay [3], less than 10%; in assay [4] it was less than 10%; in assay [5] it was less than 10%; in assay [6], 52%. Moreover, the fold change (FC) amounted to 5.6 in assay [7] and 4.2 in assay [8].

For `COc1c(C)cc(Cc2c(-c3ccccc3)sc(N)c2C(=O)c2ccc(Cl)cc2)cc1C`, the Ratio in assay [1] was 3. For the same compound, the inhibition in assay [2] is 61%; in assay [3] it was less than 10%; in assay [4], less than 10%; in assay [5], less than 10%; in assay [6], 59%. For the same compound, the fold change (FC) in assay [7] came out at 6.6; in assay [8], 4.6.

With `CC(C)(C)Cc1c(-c2ccc(Cl)cc2)sc(N)c1C(=O)c1ccc(Cl)cc1`, the figures for the fold change (FC) in assay [7] and in assay [8] were 5.8 and 4, respectively.

Turning to `Nc1sc(-c2ccccc2)c(Cc2ccccc2)c1C(=O)c1ccc(Cl)cc1`, the Ratio in assay [1] is 3. Further, the inhibition in assay [2] is 50%; in assay [3] it was less than 10%; in assay [4] it was less than 10%; in assay [5] it was less than 10%; in assay [6], 51%. For the same compound, the fold change (FC) in assay [7] amounted to 4.9; in assay [8] it was 4.2.

With `COc1ccc(Cc2c(-c3ccccc3)sc(N)c2C(=O)c2ccc(Cl)cc2)cc1C`, the Ratio in assay [1] came to 3. The inhibition in assay [2] was 66%; in assay [3], less than 10%; in assay [4], less than 10%; in assay [5] it was less than 10%; in assay [6] it was 66%. Besides, the fold change (FC) stood at 8.1 in assay [7] and 6.1 in assay [8].

As to `COc1ccc(Cc2c(-c3ccc(F)cc3)sc(N)c2C(=O)c2ccc(Cl)cc2)cc1`, the Ratio in assay [1] came out at 3. Also, the inhibition in assay [2] was 59%; in assay [3], less than 10%; in assay [4] it was less than 10%; in assay [5], less than 10%; in assay [6] it was 58%. Moreover, the fold change (FC) in assay [7] was 6.3; in assay [8] it was 5.4.

Consider `Nc1sc(-c2ccc(F)cc2)c(Cc2ccc(F)cc2)c1C(=O)c1ccc(Cl)cc1`, for which the Ratio in assay [1] was 3. The inhibition in assay [2] was 41%; in assay [3], less than 10%; in assay [4] it was less than 10%; in assay [5], less than 10%; in assay [6], 45%. Moreover, the fold change (FC) stood at 4.8 in assay [7] and 3.7 in assay [8].

Turning to `Cc1ccc(Cc2c(-c3ccc(F)cc3)sc(N)c2C(=O)c2ccc(Cl)cc2)cc1`, in assay [1], the Ratio stood at 3. Further, the inhibition in assay [2] was 62%; in assay [3], less than 10%; in assay [4], less than 10%; in assay [5] it was less than 10%; in assay [6], 59%. Further, the values for the fold change (FC) in assay [7] and in assay [8] were 6.5 and 5.6, respectively.

For `Nc1sc(-c2ccc(F)cc2)c(Cc2ccccc2)c1C(=O)c1ccc(Cl)cc1`, the Ratio in assay [1] amounted to 3. For the same compound, the inhibition in assay [2] is 49%; in assay [3] it was less than 10%; in assay [4], less than 10%; in assay [5], less than 10%; in assay [6], 50%. For the same compound, the values for the fold change (FC) in assay [7] and in assay [8] were 4.9 and 3.9, respectively.

As to `Nc1sc(Cc2ccc(OC(F)(F)F)cc2)c(-c2ccccc2)c1C(=O)c1ccc(Cl)cc1`, the inhibition in assay [2] was 25%; in assay [3], less than 10%; in assay [4] it was less than 10%; in assay [5], less than 10%; in assay [6] it was 24%. In addition, the fold change (FC) in assay [7] and in assay [8] was 1.8 throughout.

Consider `Nc1sc(Cc2ccccc2)c(-c2ccccc2)c1C(=O)c1ccc(Cl)cc1`, for which the inhibition in assay [2] is 35%; in assay [3], less than 10%; in assay [4], less than 10%; in assay [5], less than 10%; in assay [6], 34%. The fold change (FC) in assay [7] turned out to be 2.6; in assay [8], 1.9.

On to `Nc1sc(-c2ccc(Cl)cc2)c(CN2CCN(c3ccc(Cl)cc3)CC2)c1C(=O)c1ccc(Cl)cc1`, for which the fold change (FC) was 11.4 in assay [7] and 8.7 in assay [8].

On to `COc1cccc(Cc2sc(N)c(C(=O)c3ccc(Cl)cc3)c2-c2ccccc2)c1`, for which the inhibition in assay [2] was 31%; in assay [3], less than 10%; in assay [4], less than 10%; in assay [5] it was less than 10%; in assay [6], 32%. Besides, the fold change (FC) in assay [7] worked out at 2.6; in assay [8] it was 1.9.

For `Nc1sc(Cc2cccc3ccccc23)c(-c2ccccc2)c1C(=O)c1ccc(Cl)cc1`, the inhibition is 22% in assay [2]; less than 10% in assay [3]; less than 10% in assay [4]; less than 10% in assay [5]; 21% in assay [6]. Further, the fold change (FC) in assay [7] was determined as 1.5; in assay [8], 1.4.

Consider `CC(C)Oc1ccc(Cc2sc(N)c(C(=O)c3ccc(Cl)cc3)c2-c2ccccc2)cc1`, for which the inhibition in assay [2] was 26%; in assay [3], less than 10%; in assay [4] it was less than 10%; in assay [5] it was less than 10%; in assay [6] it was 26%. Besides, the fold change (FC) in assay [7] was 1.8; in assay [8], 2.

Regarding `COc1ccc(Cc2sc(N)c(C(=O)c3ccc(Cl)cc3)c2-c2ccccc2)cc1C`, the inhibition in assay [2] was 30%; in assay [3], less than 10%; in assay [4] it was less than 10%; in assay [5], less than 10%; in assay [6], 31%. Moreover, the values for the fold change (FC) in assay [7] and in assay [8] were 2.7 and 2.4, respectively.

`Nc1sc(Cc2ccc(C(F)(F)F)cc2)c(-c2ccccc2)c1C(=O)c1ccc(Cl)cc1`: the inhibition in assay [2] is 24%; in assay [3] it was less than 10%; in assay [4] it was less than 10%; in assay [5], less than 10%; in assay [6], 25%. The fold change (FC) in assay [7] is 1.8; in assay [8] it was 1.6.

Consider `CCOc1ccc(Cc2sc(N)c(C(=O)c3ccc(Cl)cc3)c2-c2ccccc2)cc1`, for which the inhibition in assay [2] is 21%; in assay [3], less than 10%; in assay [4], less than 10%; in assay [5] it was less than 10%; in assay [6], 22%. Moreover, the fold change (FC) in assay [7] and in assay [8] was 1.5 in each case.

In the case of `COc1ccc(Cc2sc(N)c(C(=O)c3ccc(Cl)cc3)c2-c2ccccc2)cc1`, the inhibition in assay [2] is 36%; in assay [3], less than 10%; in assay [4], less than 10%; in assay [5] it was less than 10%; in assay [6], 35%. The fold change (FC) in assay [7] stood at 2.8; in assay [8], 2.

As for `Nc1sc(-c2ccccc2)c(Cc2cccc3ccccc23)c1C(=O)c1ccc(Cl)cc1`, the inhibition in assay [2] was 58%; in assay [3], less than 10%; in assay [4] it was less than 10%; in assay [5], less than 10%; in assay [6], 57%. Moreover, the fold change (FC) is 6.1 in assay [7] and 4.3 in assay [8].
